Experimental findings from PubChem BioAssay (NCI) are described below.

Where “and” joins values, the source holds several entries; their conditions need not be identical. Equal entries are not always repeated.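 Each compound was tested at five concentrations against cells in 96-well plates for 48 hours. The concentration for 50% growth inhibition is given as GI50. The concentration for full growth arrest is given as TGI.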

Holding throughout (assay): DTP human tumour cell line panel, 48 h
Test [1] relates to T-47D breast.
Test [2] relates to SK-MEL-2 melanoma.
Test [3] relates to RPMI-8226 leukemia.
In test [4] the test system is SNB-75 CNS.
In test [5] the test system is BT-549 breast.
In test [6] the test system is HCT-15 colon.
For test [7], the system named is HL-60(TB) leukemia.
In test [8] the test system is RXF 393 renal.

One may read the GI50 as the concentration at which growth is held to half of that of the control. One may read the TGI as the concentration at which net growth stops. A higher TGI goes with lower sensitivity of the cells. Take `O=C(O)c1cccc(COc2ccc([N+](=O)[O-])cc2Cl)c1`: the GI50 was above 100 µM in test [1]; above 100 µM in test [2]; above 100 µM in test [3]; above 100 µM in test [4]; 53.4 µM in test [5]; above 100 µM in test [6]. Moreover, the GI50 in test [7] is 58.5 µM. Besides, the TGI in test [1], in test [2], in test [3], in test [4], in test [5] and in test [6] was above 100 µM throughout. The molecule also came in with a total growth inhibition concentration (TGI) in test [7] above 100 µM.
As to `COc1ccc(-c2ccc3c(N4CCOC[C@@H]4C)nc(N4CCOC[C@@H]4C)nc3n2)cc1CO`, the GI50 is 0.00158 µM and < 0.01 µM in test [1]; 0.00363 µM and 0.0281 µM in test [3]; 0.0039 µM and < 0.01 µM in test [4]; 0.00348 µM and 0.0162 µM in test [5]; 0.00526 µM and 0.0301 µM in test [6]; 0.00244 µM and < 0.0105 µM in test [8]. The concentration for total growth inhibition (TGI) in test [1] is 0.00844 µM and 0.0544 µM; in test [4], 0.0237 µM and 0.0359 µM; in test [6], above 100 µM; in test [8], 0.00676 µM and 0.0643 µM; in test [7], > 3.76 µM and 20.7 µM.
With `c1coc(-c2c3ccc(=[N+]4CCCCC4)cc-3oc3cc(N4CCCCC4)ccc23)c1`, the GI50 in test [2] was 0.119 µM; in test [4], 0.0903 µM; in test [5], 0.191 µM; in test [8], 0.0437 µM; in test [7], 0.0921 µM. Moreover, the TGI stood at 1.09 µM in test [2]; 0.588 µM in test [4]; 0.865 µM in test [5]; 0.228 µM in test [8]; 0.468 µM in test [7].
As to `COc1ccc(-c2nc(-c3cc(OC)cc(OC)c3)[nH]c2-c2ccc(OC)cc2)cc1`, the GI50 was 2.36 µM in test [1]; 2.49 µM in test [3]; above 100 µM in test [4]; 8.56 µM in test [5]; 5.04 µM in test [6]; above 100 µM in test [8]. The GI50 in test [7] is 3.74 µM. In addition, the TGI is 9.25 µM in test [1]; 6.96 µM in test [3]; above 100 µM in test [4]; above 100 µM in test [5]; above 100 µM in test [6]; above 100 µM in test [8]. Moreover, the TGI in test [7] is above 100 µM.
For `COC(c1ccc(C(C)(C)C)cc1)(c1ccc(C(C)(C)C)cc1)c1ccc(C(C)(C)C)cc1`, the concentration for total growth inhibition (TGI) in test [1], in test [2], in test [3], in test [4], in test [5] and in test [6] was above 100 µM each time. In test [7], this molecule returned a total growth inhibition concentration (TGI) above 100 µM.
Regarding `COC(=O)C1C(O)C(C(=O)OC)C(C)N(C)C1C` (stereo not given), the total growth inhibition concentration (TGI) in test [2], in test [3], in test [5], in test [6], in test [8] and in test [7] was above 100 µM in each case.
For the molecule `COc1ccc(-c2cnnn2-c2nonc2-n2cccc2)cc1`, the concentration for 50% growth inhibition (GI50) in test [2] was 0.189 µM; in test [3] it was 0.353 µM; in test [4], 0.222 µM; in test [5], 0.698 µM; in test [6] it was 0.311 µM; in test [8], 0.138 µM. In addition, in test [7], the GI50 is 0.177 µM. Besides, the TGI in test [2] was 0.8 µM; in test [3], 5.02 µM; in test [5] it was 34.6 µM; in test [6], above 100 µM; in test [8], 0.609 µM; in test [7], 0.547 µM.
As to `CN(C)CCNCCN`, the TGI in test [1], in test [2], in test [3], in test [5], in test [6] and in test [7] was above 100 µM each time.
Turning to `COc1cc(/C=C\c2cc(OC)c(OC)c(OC)c2)cc(N/C=C\C(=O)c2c[nH]c3ccccc23)c1OC`, the GI50 in test [1] was 1.55 µM; in test [2], 2.21 µM; in test [3], 0.627 µM; in test [4], 1.47 µM; in test [5], 1.64 µM; in test [6] it was 2.32 µM. The GI50 in test [8] was 1.69 µM. Also, the total growth inhibition concentration (TGI) in test [1] was determined as 4.51 µM; in test [2], 4.68 µM; in test [3], 2.93 µM; in test [4], 2.92 µM; in test [5], 3.38 µM; in test [6], 5.63 µM. Also, in test [8], the TGI is 3.38 µM.
With `COc1cc2c(/C=N\N=C(N)N)c[nH]c2cc1C`, the GI50 was 11.7 µM in test [1]; 32.7 µM in test [2]; 14.3 µM in test [3]; 15.3 µM in test [5]; 35.8 µM in test [6]; 62.1 µM in test [8]. Also, the GI50 in test [7] is 15.9 µM. Further, the TGI in test [1] is 27.9 µM; in test [2] it was above 100 µM; in test [3] it was 27.4 µM; in test [5], 28.5 µM; in test [6] it was above 100 µM; in test [8], above 100 µM. Further, the TGI in test [7] came to 29.4 µM.
Take `O=C(Nc1cc(Cl)ccc1O)c1ccc(Nc2ccnc(C(F)(F)F)c2)cc1`: the GI50 in test [1] was 1.76 µM; in test [3], 1.25 µM; in test [5] it was 2.21 µM; in test [6], 2.86 µM; in test [8], 5.71 µM; in test [7] it was 1.25 µM. The concentration for total growth inhibition (TGI) is 6.39 µM in test [1]; 3.83 µM in test [3]; 6.88 µM in test [5]; above 100 µM in test [6]; above 100 µM in test [8]; 4.42 µM in test [7].
As for `O=C(/C(=C\c1c(-c2ccccc2)[nH]c2ccccc12)S(=O)(=O)c1ccccc1)c1ccccc1`, the GI50 in test [1] was 3.44 µM; in test [2], above 100 µM; in test [3] it was 7.61 µM; in test [4], 10.1 µM; in test [5] it was above 100 µM; in test [8], 97.1 µM. In test [7], the GI50 was 4.98 µM. In addition, the total growth inhibition concentration (TGI) in test [1], in test [2], in test [3], in test [4], in test [5] and in test [8] was above 100 µM throughout. Further, the TGI in test [7] is above 100 µM.
